“Also recorded” adds a separate entry of the source.
Tests used:
5XFAD AD-Tg mice [1] = assay: Aβ plaque quantitation (immunohistochemistry) in 5XFAD AD-Tg mice; format: in vivo, mouse
Description: Tissue processing and immunohistochemistry were performed on paraffin embedded sectioned mouse (6 μm thick) and human (10 μm thick) brains. For human ICAM-1 staining, primary mouse anti-ICAM (1:20 Abcam; ab2213) antibody was used. Slides were incubated for 10 min with 3% H2O2, and a secondary biotin-conjugated anti-mouse antibody was used, followed by biotin/avidin amplification with Vectastain ABC kit (Vector Laboratories). Subsequently, 3,3′-diaminobenzidine (DAB substrate) (Zytomed kit) was applied; slides were dehydrated and mounted with xylene-based mounting solution. For tissue stainings, mice were transcardially perfused with PBS prior to tissue excision and fixation. CP tissues were isolated under a dissecting microscope (Stemi DV4; Zeiss) from the lateral, third, and fourth ventricles of the brain. For whole mount CP staining, tissues were fixated with 2.5% paraformaldehyde (PFA) for 1 hour at 4° C., and subsequently transferred to PBS containing 0.05% sodium azide. Prior to staining, the dissected tissues were washed with PBS and blocked (20% horse serum, 0.3% Triton X-100, and PBS) for 1 h at room temperature. Whole mount staining with primary antibodies (in PBS containing 2% horse serum and 0.3% Triton X-100), or secondary antibodies, was performed for 1 h at room temperature. Each step was followed by three washes in PBS. The tissues were applied to slides, mounted with Immu-mount (9990402, from Thermo Scientific), and sealed with cover-slips. For staining of sectioned brains, two different tissue preparation protocols (paraffin embedded or microtomed free-floating sections) were applied, as previously described (Baruch et al, 2013; Kunis et al, 2013). […] Microscopic analysis, was performed using a fluorescence microscope (E800; Nikon) or laser-scanning confocal microscope (Carl Zeiss, Inc.). The fluorescence microscope was equipped with a digital camera (DXM 1200F; Nikon), and with either a 20×NA 0.50 or 40×NA 0.75 objective lens (Plan Fluor; Nikon). […] For quantification of staining intensity, total cell and background staining was measured using ImageJ software (NIH), and intensity of specific staining was calculated, as previously described (Burgess et al, 2010). […]
From each brain, 6 μm coronal slices were collected, and eight sections per mouse, from four different pre-determined depths throughout the region of interest (dentate gyrus or cerebral cortex) were immunostained. […]

5XFAD AD-Tg mice [2] = assay: Soluble Aβ (sAβ) ELISA of cerebral brain parenchyma in AD-Tg mice; format: in vivo, mouse
Description: Inhibition of p300 in mice was performed similarly to previously described (Liu et al, 2013). p300i (C646; Tocris Bioscience) was dissolved in DMSO and injected i.p. daily (8.9 mg kg^−1 d^−1, i.p.) for 1 week. Vehicle-treated mice were similarly injected with DMSO.
Tissue homogenization and sAβ protein extraction was performed as previously described (Schmidt et al, 2005). Briefly, cerebral brain parenchyma was dissected and snap-frozen and kept at −80° C. until homogenization. Proteins were sequentially extracted from samples to obtain separate fractions containing proteins of differing solubility. Samples were homogenized in 10 volumes of ice-cold tissue homogenization buffer, containing 250 mM of sucrose, 20 mM of Tris base, 1 mM of ethylenediaminetetraacetic acid (EDTA), and 1 mM of ethylene glycol tetraacetic acid (pH 7.4), using a ground glass pestle in a Dounce homogenizer. After six strokes, the homogenate was mixed 1:1 with 0.4% diethylamine (DEA) in a 100-mM NaCl solution before an additional six strokes, and then centrifuged at 135,000 g at 4° C. for 45 min. The supernatant (DEA-soluble fraction containing extracellular and cytosolic proteins) was collected and neutralized with 10% of 0.5M of Tris-HCl (pH 6.8). Aβ1-40 and Aβ1-42 were individually measured by enzyme-linked immunosorbent assay (ELISA) from the soluble fraction using commercially available kits (Biolegend; #SIG-38954 and #SIG-38956, respectively) according to the manufacturer instructions.

aged mice (18 months) = assay: p300 inhibition in aged mice, flow cytometry of spleen and CP; format: in vivo, mouse; conditions: p300i 8.9 mg/kg/d i.p. for 1 week vs DMSO, examined a day after cessation
Description: Mice were transcardially perfused with PBS, and tissues were treated as previously described (Baruch et al, 2013). Brains were dissected and the different brain regions were removed under a dissecting microscope (Stemi DV4; Zeiss) in PBS, and tissues were dissociated using the gentleMACS™ dissociator (Miltenyi Biotec). Choroid plexus tissues were isolated from the lateral, third and fourth ventricles of the brain, incubated at 37° C. for 45 min in PBS (with Ca^2+/Mg^2+) containing 400 U/ml collagenase type IV (Worthington Biochemical Corporation), and then manually homogenized by pipetting. Spleens were mashed with the plunger of a syringe and treated with ACK (ammonium chloride potassium) lysing buffer to remove erythrocytes. In all cases, samples were stained according to the manufacturers' protocols. All samples were filtered through a 70 μm nylon mesh, and blocked with anti-Fc CD16/32 (1:100; BD Biosciences). For intracellular staining of IFN-γ, the cells were incubated with […] (10 ng/ml; Sigma-Aldrich) and ionomycin (250 ng/ml; Sigma-Aldrich) for 6 h, and Brefeldin-A (10 μg/ml; Sigma-Aldrich) was added for the last 4 h. Intracellular labeling of cytokines was done with BD Cytofix/Cytoperm™ Plus fixation/permeabilization kit (cat. no. 555028). […] Cells were analyzed on an LSRII cytometer (BD Biosciences) using FlowJo software. […]

p300 = p300 (Mus musculus, UniProt B2RWS6); conditions: Liu et al, 2013; cited from earlier work
Chain of p300 (B2RWS6 whole entry): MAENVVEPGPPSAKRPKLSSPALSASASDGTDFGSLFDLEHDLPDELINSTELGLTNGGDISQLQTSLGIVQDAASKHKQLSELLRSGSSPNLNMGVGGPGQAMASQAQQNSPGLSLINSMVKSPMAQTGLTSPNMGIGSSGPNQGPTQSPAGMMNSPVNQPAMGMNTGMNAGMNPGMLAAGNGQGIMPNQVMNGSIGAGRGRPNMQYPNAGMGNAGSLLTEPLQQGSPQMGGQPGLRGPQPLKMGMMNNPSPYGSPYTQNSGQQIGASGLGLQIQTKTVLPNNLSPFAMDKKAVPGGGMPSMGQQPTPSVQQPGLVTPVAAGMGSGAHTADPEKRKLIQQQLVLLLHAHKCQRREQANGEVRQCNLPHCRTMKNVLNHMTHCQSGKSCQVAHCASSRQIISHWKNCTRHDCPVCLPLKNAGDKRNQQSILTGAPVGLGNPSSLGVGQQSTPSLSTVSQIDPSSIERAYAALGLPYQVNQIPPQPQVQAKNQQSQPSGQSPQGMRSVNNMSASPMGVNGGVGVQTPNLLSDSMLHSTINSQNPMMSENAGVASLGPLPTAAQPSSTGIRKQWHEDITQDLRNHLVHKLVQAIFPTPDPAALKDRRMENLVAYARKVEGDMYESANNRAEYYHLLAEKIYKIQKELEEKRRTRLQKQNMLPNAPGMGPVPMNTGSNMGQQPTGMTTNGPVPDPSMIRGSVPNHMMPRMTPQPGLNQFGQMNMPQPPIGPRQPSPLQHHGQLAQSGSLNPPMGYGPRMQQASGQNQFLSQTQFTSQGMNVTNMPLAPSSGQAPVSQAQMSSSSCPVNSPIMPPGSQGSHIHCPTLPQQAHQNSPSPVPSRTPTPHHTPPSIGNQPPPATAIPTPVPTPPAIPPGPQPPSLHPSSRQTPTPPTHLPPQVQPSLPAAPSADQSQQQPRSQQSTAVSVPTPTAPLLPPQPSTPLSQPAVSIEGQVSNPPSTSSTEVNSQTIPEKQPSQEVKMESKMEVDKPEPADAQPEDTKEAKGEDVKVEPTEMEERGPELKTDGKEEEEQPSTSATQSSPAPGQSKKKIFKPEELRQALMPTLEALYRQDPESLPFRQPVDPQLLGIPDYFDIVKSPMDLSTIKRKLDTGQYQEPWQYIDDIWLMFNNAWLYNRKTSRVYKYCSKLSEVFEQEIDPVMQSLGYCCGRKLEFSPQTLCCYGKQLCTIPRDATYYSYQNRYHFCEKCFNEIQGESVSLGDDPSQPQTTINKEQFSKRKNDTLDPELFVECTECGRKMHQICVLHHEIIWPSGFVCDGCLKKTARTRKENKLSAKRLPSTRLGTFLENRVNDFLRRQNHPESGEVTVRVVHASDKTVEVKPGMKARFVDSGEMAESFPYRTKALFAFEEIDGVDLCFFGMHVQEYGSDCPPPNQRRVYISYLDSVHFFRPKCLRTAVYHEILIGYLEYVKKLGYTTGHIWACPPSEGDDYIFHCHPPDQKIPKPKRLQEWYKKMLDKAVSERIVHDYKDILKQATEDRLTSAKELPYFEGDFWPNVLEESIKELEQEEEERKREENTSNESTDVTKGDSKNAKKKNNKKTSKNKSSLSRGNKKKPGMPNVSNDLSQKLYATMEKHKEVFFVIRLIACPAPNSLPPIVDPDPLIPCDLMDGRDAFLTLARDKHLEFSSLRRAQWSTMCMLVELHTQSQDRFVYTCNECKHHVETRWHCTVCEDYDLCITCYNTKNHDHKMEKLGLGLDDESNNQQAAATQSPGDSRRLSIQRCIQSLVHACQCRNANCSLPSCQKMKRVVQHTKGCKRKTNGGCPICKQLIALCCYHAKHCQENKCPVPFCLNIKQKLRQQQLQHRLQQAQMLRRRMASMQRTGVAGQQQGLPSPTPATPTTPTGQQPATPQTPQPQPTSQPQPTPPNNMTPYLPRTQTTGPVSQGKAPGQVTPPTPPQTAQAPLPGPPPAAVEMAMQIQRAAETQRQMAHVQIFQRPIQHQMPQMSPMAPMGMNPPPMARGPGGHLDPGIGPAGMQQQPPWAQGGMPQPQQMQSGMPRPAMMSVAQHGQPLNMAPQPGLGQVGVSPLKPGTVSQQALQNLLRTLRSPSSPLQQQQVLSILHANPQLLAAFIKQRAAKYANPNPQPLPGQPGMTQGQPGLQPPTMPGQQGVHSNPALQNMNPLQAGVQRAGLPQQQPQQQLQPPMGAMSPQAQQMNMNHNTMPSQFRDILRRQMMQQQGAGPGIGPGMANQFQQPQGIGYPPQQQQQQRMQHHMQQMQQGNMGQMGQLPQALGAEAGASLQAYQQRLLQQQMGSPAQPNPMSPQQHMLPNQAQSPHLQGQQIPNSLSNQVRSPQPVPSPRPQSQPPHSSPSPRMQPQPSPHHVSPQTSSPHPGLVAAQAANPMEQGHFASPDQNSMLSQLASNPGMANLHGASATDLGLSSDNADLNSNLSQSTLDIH

CC1=NN(c2ccc(C(=O)O)cc2)C(=O)/C1=C\c1ccc(-c2cc(C)c(C)cc2[N+](=O)[O-])o1 [p300i, 4-(4-((5-(4,5-dimethyl-2-nitrophenyl)furan-2-yl)methylene)-3-methyl-5-oxo-4,5-dihydro-1H-pyrazol-1-yl)benzoic acid]
cerebral Aβ plaque load (5XFAD AD-Tg mice [1]; 10-month old AD-Tg mice, p300i for 1 week, examined 3 weeks later): significant reduction | reduction of cerebral plaque load (5XFAD AD-Tg mice [1]; single course of p300i, examined 2 months later): evident even two months after a single course of treatment | reduction of cerebral plaque load (5XFAD AD-Tg mice [1]; two courses of p300i with 1-month interval, compared with single course): stronger | cerebral sAβ (Aβ1-40/Aβ1-42) levels (5XFAD AD-Tg mice [2]; one course of p300i): effective in reducing cerebral sAβ | effect on sAβ1-42 (5XFAD AD-Tg mice [2]; repeated courses of p300i compared with one course): stronger | cerebral sAβ (Aβ1-40/Aβ1-42) levels (5XFAD AD-Tg mice [2]; two courses of p300i with interval of 1 month): effective in reducing cerebral sAβ | IFN-γ-expressing cells in the CP (aged mice (18 months)): elevated levels; also recorded: elevation | IFN-γ-expressing cells in the spleen (aged mice (18 months)): elevated levels; also recorded: elevation | effect on Treg suppressive activities (p300): affect Treg suppressive activities while leaving protective T effector cell responses intact

Source: patent US11492405B2, “Reducing systemic regulatory t cell levels or activity for treatment of disease and injury of the CNS” (Yeda Research and Development Co. Ltd, priority 2014, dated 2022)
